Experimental data from patent publication US7579374B2, “Agent for improving bone metabolism” (The Nisshin OilliO Group, Ltd., priority 2001, dated 2009).

Tests used:
Assay type in all cases: cell-based, mice
[1] = test system: MC3T3-E1 cells; assay: Cell growth rate of osteoblasts in cell culture system; conditions: 10 μM; for Cell Growth Rate: viable cells after 3 days, relative to control defined as 100
Excerpt: (§1) In such a system, the osteoblasts are proliferated and the activity of osteoblasts is increased. Therefore, any influence of a substance on the osteoblast-formation can be evaluated by determining, for instance, the rate of cell proliferation and the alkaline phosphatase (ALP) activity as an activity parameter.
(§2) In this Example, there were examined the effects of the chain isoprenoid fatty acid esters on the differentiation and calcium-accumulation of MC3T3-E1 cells or the osteoblasts derived from the skull-caps of mice. A culture medium was added to a 6-well plate in an amount of 2 mL/well, a desired number of MC3T3-E1 cells was inoculated on the medium and the cells were cultivated in a 10% fatal bovine serum-containing base culture liquid (α-MEM, available from Gibco Company) at 37° C. in an atmosphere of 5% CO2. On the day subsequent to the initiation of the cultivation, the culture medium was replaced with the fresh one and simultaneously a solution containing each test sample (the chain isoprenoid fatty acid esters obtained in Preparation Examples 1 to 9) was admixed with and added to the culture medium in an amount of 10 μM for the determination of the cell growth rate and 2.5 μM for the determination of the alkali phosphatase (ALP) activity and the cultivation was continued. The cells for the cell growth rate determination were recovered after 3 days from the initiation of the cultivation and the number of viable cells was counted to determine the cell growth rate. Regarding the other cells, the medium was replaced with fresh one on 5th day of cultivation, the test sample-containing solution was again added and the alkali phosphatase (ALP) activity was determined after the cultivation over one week.
The cell growth rate was calculated as a value relative to the cell growth rate observed for the control (free of any added test sample), which was defined to be 100.

[2] = test system: osteoclasts; assay: Bone absorption-inhibitory action in cell co-cultivation system (TRACP activity); parameters: key to Judged Efficacy (TRACP, t-test relative to the control): ⊚: The test substance shows a considerable inhibitory effect (p < 0.01); ◯: The test substance shows an inhibitory effect (p < 0.05); Δ: The test substance shows only slight or no inhibitory effect (there is not observed any significant difference); X: The test substance shows a bone absorption-promoting effect (there is observed a negativesignificant difference); conditions: 10 μM test substance; for Judged Efficacy (TRACP, t-test relative to the control): 2 weeks; for TRACP Act.: co-culture 2 weeks with 10 nM Calcitriol and 100 nM Dexamethasone, control 102.8 ± 12.6
Excerpt: The cell co-culture system used herein means a system in which osteoblasts and hematopoietic cells are subjected to co-culture in the presence of a factor for promoting the formation of osteoclasts and which thus easily permits the analysis of the differentiation process of the osteoclasts (Endocrinology, 1988, 123: 2600-2602). In such a system, osteoclasts are formed and therefore, the degree of osteoclast-formation can be evaluated by the determination of a tartaric acid-resistant acid phosphatase (TRACP) activity in the cell layer as the parameter indicative of the osteoclast.
The test for the confirmation of the bone absorption-inhibitory action of the isoprenoid ester was carried out according to the method disclosed in the literature (Endocrinology, 1988, 123: 2600). The method will be outlined below:
Stroma cells collected from the skull-caps of two-week-old mice according to the method disclosed in the literature (Endocrinology, 1988, 123: 2600) were dispersed in a 10% fetal bovine serum-containing culture base liquid (α-MEM; available from Gibco Company) to a cell density of 5×10^4 cells/mL.
Spleen cells collected from the spleen of 6-week-old ddy male mice according to the method disclosed in the literature (Proc. Natl. Acad. Sci. USA, 1983, 80: 5583) were dispersed in a 10% fetal bovine serum-containing culture base liquid (α-MEM; available from Gibco Company) to a cell density of 5×10^5 cells/mL.
The co-cultivation was carried out in a 5% CO2-containing atmosphere at a temperature of 37° C. using a 10% FBS (fetal bovine serum)-containing culture base liquid (α-MEM; available from Gibco Company). Osteoblast cells were inoculated on a 24-well petri dish at a cell density of 5×10^4 cells/mL/well, spleen cells were then inoculated thereon at a cell density of 5×10^5 cells/mL/well after one day and a solution of a test substance, which had been dissolved in DMSO in a concentration of 10^-2M, was then added to each well in such a manner that the concentration of the test substance was equal to 10 μM. These cells were cultivated in the presence of 10 nM Calcitriol and 100 nM Dexamethasone over 2 weeks while defining the day on which the spleen cells were inoculated as 0th day. In this respect, the culture medium was replaced with fresh one twice a week. After two weeks, the activity of the tartrate-resistant acid phosphatase (hereunder referred to as “TRACP”) in the cell layer was determined, which served as a parameter indicating the number of osteoclasts in the layer.
In the determination of the TRACP activity, there was used a kit of acid phosphatase KII-WAKO (available from WAKO Pure Chemical Co., Ltd.). The culture medium was removed from the Petri dish, 500 μL each of a substrate was added to each well, the resulting cell suspension was heated at 37° C. for 15 minutes, followed by the addition of 500 μL each of a color developing liquid and the determination of the absorbance at a wavelength of 570 nm. The TRACP activity corresponding to each absorbance thus measured was determined using a calibration curve prepared in advance.

[3] = test system: MC3T3-E1 cells; assay: Alkaline phosphatase (ALP) activity of osteoblasts in cell culture system; parameters: key to Judged Efficacy (ALP, t-test relative to the control): ⊚: The test substance shows a considerable inhibitory effect (p < 0.01); ◯: The test substance shows an inhibitory effect (p < 0.05); Δ: The test substance shows only slight or no inhibitory effect (there is not observed any significant difference); X: The test substance shows a bone absorption-promoting effect (there is observed a negativesignificant difference); conditions: 2.5 μM; for ALP Act.: cultivation over one week, control 71.6 ± 4.6; for Judged Efficacy (ALP, t-test relative to the control): one week
Excerpt: as §1, §2
In these experiments, there was used a kit for Alkaline Phospha K-Test WAKO (available from WAKO Pure Chemical Co., Ltd.). A sample used was a suspension of cells obtained by cultivating the same in the presence of each test substance added. A substrate (150 μL) was added to 10 μL of each sample followed by heating at 37° C. for 15 minutes, the addition of 150 μL of a color-developing liquid and determination of the absorbance at 570 nm. The ALP activity corresponding to each absorbance thus measured was determined using a calibration curve prepared in advance.

Compound | Cell Growth Rate [1] | Judged Efficacy (TRACP, t-test relative to the control) [2] | TRACP Act. [2] | ALP Act. [3] | Judged Efficacy (ALP, t-test relative to the control) [3] | Effect on proliferation of osteoblasts (in words) ([1]; compared with the control)
CCC=CCC=CCC=CCC=CCC=CCCCC(=O)OCCC(C)CCCC(C)CCCC(C)CCCC(C)C (centres unmarked) [Dihydrophytyl Eicosapentaenoate] | 118.9% | ◯ (The test substance shows an inhibitory effect (p < 0.05)) | 83.4 ± 9.4 KA-U/well | 118.7 ± 8.9 KA-U/well | ⊚ (The test substance shows a considerable inhibitory effect (p < 0.01)) | 
CCCCC/C=C\C/C=C\C/C=C\CCCCC(=O)OC/C=C(\C)CC/C=C(\C)CC/C=C(\C)CCC=C(C)C [Geranyl-Geranyl γ-Linolenate] | 111.4% | ⊚ (The test substance shows a considerable inhibitory effect (p < 0.01)) | 21.7 ± 4.9 KA-U/well | 84.4 ± 5.1 KA-U/well | ⊚ (The test substance shows a considerable inhibitory effect (p < 0.01)) | 
CCCCCCCC/C=C\CCCCCCCC(=O)OC/C=C(\C)CC/C=C(\C)CC/C=C(\C)CCC=C(C)C [Geranyl-geranyl oleate, Geranyl-Geranyl Oleate] | 108.3% | ⊚ (The test substance shows a considerable inhibitory effect (p < 0.01)) | 16.8 ± 3.4 KA-U/well | 82.8 ± 6.7 KA-U/well | ◯ (The test substance shows an inhibitory effect (p < 0.05)) | 
CCCCCCCCCCCCCCCCCC(=O)OC/C=C(\C)CC/C=C(\C)CC/C=C(\C)CCC=C(C)C [Geranyl-geranyl stearate, Geranyl-Geranyl Stearate] | 102.9% | ⊚ (The test substance shows a considerable inhibitory effect (p < 0.01)) | 25.3 ± 5.2 KA-U/well | 80.1 ± 5.2 KA-U/well | ◯ (The test substance shows an inhibitory effect (p < 0.05)) | 
CC1=C(C/C=C(\C)CCC[C@H](C)CCC[C@H](C)CCCC(C)C)C(=O)c2ccccc2C1=O [Vitamin K1, reference compound] | 69.3% | ◯ (The test substance shows an inhibitory effect (p < 0.05)) | 88.5 ± 8.1 KA-U/well | 76.1 ± 4.9 KA-U/well | Δ | 
CC(C)=CCC/C(C)=C/CC/C(C)=C/CC/C(C)=C/CC1=C(C)C(=O)c2ccccc2C1=O [Vitamin K2 (MK-4), reference compound] | 32.4% | ⊚ (The test substance shows a considerable inhibitory effect (p < 0.01)) | 20.3 ± 4.1 KA-U/well | 78.6 ± 3.2 KA-U/well | ◯ (The test substance shows an inhibitory effect (p < 0.05)) | reduces the rate of cell proliferation
CC1=CC(=O)c2ccccc2C1=O [Vitamin K3, reference compound] | 0.0% | ◯ (The test substance shows an inhibitory effect (p < 0.05)) | 87.9 ± 10.2 KA-U/well | 91.2 ± 11.0 KA-U/well | ◯ (The test substance shows an inhibitory effect (p < 0.05)) | 
Farnesyl Eicosapentaenoate | 115.6% | Δ | 96.9 ± 12.7 KA-U/well | 85.4 ± 8.4 KA-U/well | ◯ (The test substance shows an inhibitory effect (p < 0.05)) | 
Geranyl Eicosapentaenoate | 121.4% | Δ | 87.4 ± 10.3 KA-U/well | 87.2 ± 10.6 KA-U/well | ◯ (The test substance shows an inhibitory effect (p < 0.05)) | 
Geranyl-Geranyl Conjugated Linoleate | 120.1% |  |  | 88.3 ± 4.8 KA-U/well | ⊚ (The test substance shows a considerable inhibitory effect (p < 0.01)) | 
Geranyl-Geranyl Docosahexaenoate | 104.8% | ⊚ (The test substance shows a considerable inhibitory effect (p < 0.01)) | 18.5 ± 5.8 KA-U/well | 89.8 ± 6.1 KA-U/well | ⊚ (The test substance shows a considerable inhibitory effect (p < 0.01)) | 
Phytyl Eicosapentaenoate | 123.4% | ◯ (The test substance shows an inhibitory effect (p < 0.05)) | 84.2 ± 7.1 KA-U/well | 114.6 ± 7.7 KA-U/well | ⊚ (The test substance shows a considerable inhibitory effect (p < 0.01)) | 
